Measurements taken from PubChem BioAssay (NCI).
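In this assay, cells in 96-well plates receive the compound at five concentrations for 48 hours. Endpoints are linearly interpolated between the surrounding concentrations. GI50 is the concentration that inhibits growth by half. TGI is the concentration that stops growth completely.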

Key:
Assay in all cases: DTP human tumour cell line panel, 48 h
[1] = tested on: CCRF-CEM leukemia
[2] = tested on: NCI-H460 lung
[3] = tested on: MDA-MB-435
[4] = tested on: DU-145 prostate
[5] = tested on: RXF 393 renal
[6] = tested on: SF-268 CNS
[7] = tested on: SK-MEL-28 melanoma
[8] = tested on: HS 578T breast
[9] = tested on: A549 NSCLC
[10] = tested on: HOP-62 NSCLC
[11] = tested on: A498 renal
[12] = tested on: MCF7 breast
[13] = tested on: HCT-116 colon
[14] = tested on: UACC-62 melanoma
[15] = tested on: SK-MEL-5 melanoma
[16] = tested on: TK-10 renal
[17] = tested on: SN12C renal
[18] = tested on: SF-539 CNS
[19] = tested on: U251 CNS
[20] = tested on: NCI/ADR-RES ovarian
[21] = tested on: SW-620 colon
[22] = tested on: SK-MEL-2 melanoma
[23] = tested on: NCI-H226 lung
[24] = tested on: 786-0 renal
[25] = tested on: COLO 205 colon
[26] = tested on: M14 melanoma
[27] = tested on: MOLT-4 leukemia
[28] = tested on: KM12 colon
[29] = tested on: SK-OV-3 ovarian
[30] = tested on: SR leukemia
[31] = tested on: NCI-H522 lung
[32] = tested on: MDA-MB-231 breast
[33] = tested on: RPMI-8226 leukemia
[34] = tested on: HCT-15 colon
[35] = tested on: SNB-19 CNS
[36] = tested on: CAKI-1 renal
[37] = tested on: ACHN renal
[38] = tested on: PC-3 prostate
[39] = tested on: HT29 colon
[40] = tested on: HOP-92 NSCLC
[41] = tested on: OVCAR-5 ovarian
[42] = tested on: NCI-H23 lung
[43] = tested on: OVCAR-8 ovarian
[44] = tested on: LOX IMVI melanoma
[45] = tested on: BT-549 breast
[46] = tested on: UO-31 renal
[47] = tested on: OVCAR-3 ovarian
[48] = tested on: HCC-2998 colon
[49] = tested on: OVCAR-4 ovarian
[50] = tested on: HL-60(TB) leukemia
[51] = tested on: SF-295 CNS
[52] = tested on: SNB-75 CNS
[53] = tested on: K-562 leukemia
[54] = tested on: IGROV1 ovarian

`COc1ccc(-c2cn[nH]c2-c2cc(OC)c3c(c2)OCO3)cc1` was tested, and the GI50 [1] was 266 nM, the TGI [1] was 21300 nM and the GI50 [2] was 335 nM. It also gave a TGI [2] of 11300 nM, a GI50 [3] of 26.7 nM and a TGI [3] of 83.8 nM. For the same compound, the GI50 [4] was 402 nM, the TGI [4] was 14900 nM and the GI50 [5] was 176 nM. It also gave a TGI [5] of 684 nM, a GI50 [6] of 854 nM and a TGI [6] of 31000 nM. For the same compound, the GI50 [7] was 1220 nM, the TGI [7] was 28500 nM and the GI50 [8] was 311 nM. It also gave a TGI [8] of 26200 nM, a GI50 [9] of 300 nM and a TGI [9] of 20100 nM. For the same compound, the GI50 [10] was 309 nM, the TGI [10] was 24100 nM and the GI50 [11] was 63.2 nM. The TGI [11] was 1130 nM, the GI50 [12] was 116 nM and the TGI [12] was 15800 nM. For the same compound, the GI50 [13] was 277 nM, the TGI [13] was 11700 nM and the GI50 [14] was 397 nM. It also gave a TGI [14] of 14900 nM, a GI50 [15] of 277 nM and a TGI [15] of 8700 nM. For the same compound, the GI50 [16] was 1510 nM, the TGI [16] was 63300 nM and the GI50 [17] was 1100 nM. The TGI [17] was 27700 nM, the GI50 [18] was 193 nM and the TGI [18] was 539 nM. The GI50 [19] was 321 nM, the TGI [19] was 10700 nM and the GI50 [20] was 120 nM. It also gave a TGI [20] of 27400 nM, a GI50 [21] of 141 nM and a TGI [21] of 23200 nM. The GI50 [22] was 265 nM, the TGI [22] was 17800 nM and the GI50 [23] was 1340 nM. For the same compound, the TGI [23] was 22300 nM, the GI50 [24] was 585 nM and the TGI [24] was 14200 nM. The GI50 [25] was 164 nM, the TGI [25] was 768 nM and the GI50 [26] was 207 nM. It also gave a TGI [26] of 12900 nM, a GI50 [27] of 541 nM and a TGI [27] of 15100 nM. It also gave a GI50 [28] of 92.9 nM, a TGI [28] of 11100 nM and a GI50 [29] of 386 nM. The TGI [29] was 5450 nM, the GI50 [30] was 63.1 nM and the TGI [30] was 16800 nM. For the same compound, the GI50 [31] was 55.5 nM, the TGI [31] was 1680 nM and the GI50 [32] was 643 nM. For the same compound, the TGI [32] was 8350 nM, the GI50 [33] was 314 nM and the TGI [33] was 14500 nM. For the same compound, the GI50 [34] was 79.4 nM, the TGI [34] was 14400 nM and the GI50 [35] was 2970 nM. It also gave a TGI [35] of 54600 nM, a GI50 [36] of 262 nM and a TGI [36] of 24900 nM. The GI50 [37] was 780 nM, the TGI [37] was 48800 nM and the GI50 [38] was 262 nM. For the same compound, the TGI [38] was 21800 nM, the GI50 [39] was 102 nM and the TGI [39] was 12100 nM. For the same compound, the GI50 [40] was 417 nM, the TGI [40] was 20800 nM and the GI50 [41] was 1340 nM. It also gave a TGI [41] of 36600 nM, a GI50 [42] of 430 nM and a TGI [42] of 14700 nM. It also gave a GI50 [43] of 423 nM, a TGI [43] of 15100 nM and a GI50 [44] of 599 nM. For the same compound, the TGI [44] was 19200 nM, the GI50 [45] was 2260 nM and the TGI [45] was 25800 nM. For the same compound, the GI50 [46] was 669 nM, the TGI [46] was 23100 nM and the GI50 [47] was 196 nM. The TGI [47] was 596 nM, the GI50 [48] was 649 nM and the TGI [48] was 11800 nM. For the same compound, the GI50 [49] was 2150 nM, the TGI [49] was 62900 nM and the GI50 [50] was 220 nM. It also gave a TGI [50] of 771 nM, a GI50 [51] of 181 nM and a TGI [51] of 4150 nM. It also gave a GI50 [52] of 134 nM, a TGI [52] of 707 nM and a GI50 [53] of 46.7 nM. For the same compound, the TGI [53] was > 66200 nM, the GI50 [54] was 984 nM and the TGI [54] was 26700 nM.
